According to US20250115583A1, “BICYCLIC INDAZOLE GLUCOCORTICOID RECEPTOR ANTAGONISTS” (Corcept Therapeutics Incorporated, priority 2021, published 2025):

Molecular target: glucocorticoid receptor (Homo sapiens (Human), UniProt P04150)
Assay: HepG2 TAT assay: inhibition of dexamethasone-induced tyrosine aminotransferase (TAT) activity
Format: cell-based
Conditions: HepG2 cells, challenge of 100 nM dexamethasone, 18-24 hr; IC50 converted to Ki by Cheng and Prusoff equation
Summary of the method: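 Cells lysed 15 min at 4 °C; TAT enzyme reaction 2 h at 37 °C, stopped with KOH, 30 min further at 37 °C. Inhibition fitted to 4-parameter logistic.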

Sequence of glucocorticoid receptor (P04150 whole entry): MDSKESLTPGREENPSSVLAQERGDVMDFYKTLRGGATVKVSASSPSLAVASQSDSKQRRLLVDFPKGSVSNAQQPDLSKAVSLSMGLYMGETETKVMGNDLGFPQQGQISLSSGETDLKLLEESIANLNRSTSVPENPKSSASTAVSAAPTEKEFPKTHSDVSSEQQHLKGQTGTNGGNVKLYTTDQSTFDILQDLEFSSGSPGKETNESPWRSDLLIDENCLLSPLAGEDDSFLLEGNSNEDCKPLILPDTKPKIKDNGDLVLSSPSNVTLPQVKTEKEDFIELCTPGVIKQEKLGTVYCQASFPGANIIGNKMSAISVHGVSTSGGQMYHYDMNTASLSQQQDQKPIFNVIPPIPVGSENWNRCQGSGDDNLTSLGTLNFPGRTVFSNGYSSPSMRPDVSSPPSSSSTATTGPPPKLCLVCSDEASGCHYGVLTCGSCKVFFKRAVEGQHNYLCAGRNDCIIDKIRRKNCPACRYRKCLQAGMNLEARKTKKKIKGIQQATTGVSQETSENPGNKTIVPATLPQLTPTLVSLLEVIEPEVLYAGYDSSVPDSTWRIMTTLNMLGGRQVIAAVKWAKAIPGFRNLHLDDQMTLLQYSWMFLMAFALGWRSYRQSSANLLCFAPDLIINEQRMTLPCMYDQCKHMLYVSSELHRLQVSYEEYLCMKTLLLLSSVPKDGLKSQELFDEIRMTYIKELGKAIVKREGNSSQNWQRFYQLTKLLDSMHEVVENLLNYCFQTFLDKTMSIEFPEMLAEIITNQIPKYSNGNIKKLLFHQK

Structure (SMILES)	Ki [nM]
Cc1cc2c(cnn2-c2ccc(F)cc2)cc1[C@@]12CN(C(=O)c3ccccc3)C[C@@H]1[C@H]2CN1CCOCC1 (stereo in doubt) [Example 180, (1-(1-(4-fluorophenyl)-6-methyl-1H-indazol-5-yl)-6-(morpholinomethyl)-3-azabicyclo[3.1.0]hexan-3-yl)(phenyl)methanone]	600
Cc1cc2c(cnn2-c2ccc(F)cc2)cc1[C@@]12CN(C(=O)c3ccccc3)C[C@@H]1[C@]2(C)c1ccccc1 (stereo in doubt) [Example 182, (1-(1-(4-fluorophenyl)-6-methyl-1H-indazol-5-yl)-6-methyl-6-phenyl-3-azabicyclo[3.1.0]hexan-3-yl)(phenyl)methanone]	180
Cc1cc2c(cnn2-c2ccc(F)cc2)cc1[C@@]12CN(C(=O)c3ccccc3)C[C@@H]1[C@H]2Cc1ccccc1 (stereo in doubt) [Example 184, (6-benzyl-1-(1-(4-fluorophenyl)-6-methyl-1H-indazol-5-yl)-3-azabicyclo[3.1.0]hexan-3-yl)(phenyl)methanone]	860
Cc1cc2c(cnn2-c2ccc(F)cc2)cc1[C@]12CN(C(=O)c3ccccc3)C[C@H]1[C@H]2c1ccccn1 (stereo in doubt) [Example 186, (1-(1-(4-fluorophenyl)-6-methyl-1H-indazol-5-yl)-6-(pyridin-2-yl)-3-azabicyclo[3.1.0]hexan-3-yl)(phenyl)methanone]	630
Cc1cc2c(cnn2-c2ccc(F)cc2)cc1C12CC(=O)CC1CN(C(=O)OC(C)(C)C)C2 (stereo not shown) [Example 1, tert-butyl 3a-(1-(4-fluorophenyl)-6-methyl-1H-indazol-5-yl)-5-oxohexahydrocyclopenta[c]pyrrole-2(1H)-carboxylate]	370
Cc1cc2c(cnn2-c2ccc(F)cc2)cc1C12CN(S(=O)(=O)c3cnn(C)c3)CC1CC(O)(c1nccs1)C2 (stereo not shown) [Example 2, 3a-(1-(4-fluorophenyl)-6-methyl-1H-indazol-5-yl)-2-((1-methyl-1H-pyrazol-4-yl)sulfonyl)-5-(thiazol-2-yl)octahydrocyclopenta[c]pyrrol-5-ol]	490
COC1(c2nccs2)CC2CN(S(=O)(=O)c3cnn(C)c3)CC2(c2cc3cnn(-c4ccc(F)cc4)c3cc2C)C1 (stereo not shown) [Example 3, 2-(3a-(1-(4-fluorophenyl)-6-methyl-1H-indazol-5-yl)-5-methoxy-2-((1-methyl-1H-pyrazol-4-yl)sulfonyl)octahydrocyclopenta[c]pyrrol-5-yl)thiazole]	290
Cc1cc2c(cnn2-c2ccc(F)cc2)cc1C12CN(S(=O)(=O)c3cnn(C)c3)CC1CC(F)(c1ccccc1)C2 (stereo not shown) [Example 4, 5-(5-fluoro-2-((1-methyl-1H-pyrazol-4-yl)sulfonyl)-5-phenylhexahydrocyclopenta[c]pyrrol-3a(1H)-yl)-1-(4-fluorophenyl)-6-methyl-1H-indazole]	540
CO[C@]1(c2ccccc2)C[C@@H]2CN(S(=O)(=O)c3cnn(C)c3)C[C@]2(c2cc3cnn(-c4ccc(F)cc4)c3cc2C)C1 [Example 5, 1-(4-fluorophenyl)-5-((3aR,5R,6aS)-5-methoxy-2-((1-methyl-1H-pyrazol-4-yl)sulfonyl)-5-phenylhexahydrocyclopenta[c]pyrrol-3a(1H)-yl)-6-methyl-1H-indazole]	240
CO[C@@]1(c2ccccc2)C[C@@H]2CN(S(=O)(=O)c3cnn(C)c3)C[C@]2(c2cc3cnn(-c4ccc(F)cc4)c3cc2C)C1 [Example 7, 1-(4-fluorophenyl)-5-((3aR,5S,6aS)-5-methoxy-2-((1-methyl-1H-pyrazol-4-yl)sulfonyl)-5-phenylhexahydrocyclopenta[c]pyrrol-3a(1H)-yl)-6-methyl-1H-indazole]	350
CO[C@]1(c2ccccc2)C[C@H]2CN(S(=O)(=O)c3cnn(C)c3)C[C@@]2(c2cc3cnn(-c4ccc(F)cc4)c3cc2C)C1 [Example 8, 1-(4-fluorophenyl)-5-((3aS,5R,6aR)-5-methoxy-2-((1-methyl-1H-pyrazol-4-yl)sulfonyl)-5-phenylhexahydrocyclopenta[c]pyrrol-3a(1H)-yl)-6-methyl-1H-indazole]	310
Cc1cc2c(cnn2-c2ccc(F)cc2)cc1C12CN(S(=O)(=O)c3cnn(C)c3)CC1CC(O)(c1ccccc1)C2 (stereo not shown) [Example 10, 3a-(1-(4-fluorophenyl)-6-methyl-1H-indazol-5-yl)-2-((1-methyl-1H-pyrazol-4-yl)sulfonyl)-5-phenyloctahydrocyclopenta[c]pyrrol-5-ol]	220
Cc1cc2c(cnn2-c2ccc(F)cc2)cc1C12CN(S(=O)(=O)c3cnn(C)c3)CC1CC(O)(c1ccccn1)C2 (stereo not shown) [Example 15]	330
CC#CC1(OC)CC2CN(S(=O)(=O)c3cnn(C)c3)CC2(c2cc3cnn(-c4ccc(F)cc4)c3cc2C)C1 (stereo not shown) [Example 16]	270
Cc1cc2c(cnn2-c2ccc(F)cc2)cc1C12CN(C(=O)OC(C)(C)C)CC1CC(O)(c1ccccc1)C2 (stereo not shown) [Example 17, tert-butyl 3a-(1-(4-fluorophenyl)-6-methyl-1H-indazol-5-yl)-5-hydroxy-5-phenylhexahydrocyclopenta[c]pyrrole-2(1H)-carboxylate]	42
CCn1cc(S(=O)(=O)N2C[C@@H]3C[C@@](OC)(c4ccccc4)C[C@]3(c3cc4cnn(-c5ccc(F)cc5)c4cc3C)C2)cn1 [Example 21]	37
CCCn1cc(S(=O)(=O)N2C[C@@H]3C[C@](OC)(c4ccccc4)C[C@]3(c3cc4cnn(-c5ccc(F)cc5)c4cc3C)C2)cn1 [Example 22]	32
CO[C@@]1(c2ccccc2)C[C@H]2CN(S(=O)(=O)C3CC3)C[C@@]2(c2cc3cnn(-c4ccc(F)cc4)c3cc2C)C1 [Example 24]	32
CO[C@]1(c2ccccc2)C[C@@H]2CN(S(=O)(=O)c3cncc(F)c3)C[C@]2(c2cc3cnn(-c4ccc(F)cc4)c3cc2C)C1 [Example 25]	52

Other lines, results leading:

Ki [nM]	Structure (SMILES)
13	Cc1csc(C(=O)N2C[C@@H]3[C@@H](c4ccccc4)[C@]3(c3cc4cnn(-c5ccc(F)cc5)c4cc3C)C2)n1 (stereo in doubt) [Example 175, (1-(1-(4-fluorophenyl)-6-methyl-1H-indazol-5-yl)-6-phenyl-3-azabicyclo[3.1.0]hexan-3-yl)(4-methylthiazol-2-yl)methanone]
45	Cc1cnc(C(=O)N2C[C@@H]3[C@@H](c4ccccc4)[C@]3(c3cc4cnn(-c5ccc(F)cc5)c4cc3C)C2)s1 (stereo in doubt) [Example 176, (1-(1-(4-fluorophenyl)-6-methyl-1H-indazol-5-yl)-6-phenyl-3-azabicyclo[3.1.0]hexan-3-yl)(5-methylthiazol-2-yl)methanone]
23	Cc1cc2c(cnn2-c2ccc(F)cc2)cc1[C@@]12CN(C(=O)c3cc(C)n(C)n3)C[C@@H]1[C@H]2c1ccccc1 (stereo in doubt) [Example 177, (1,5-dimethyl-1H-pyrazol-3-yl)(1-(1-(4-fluorophenyl)-6-methyl-1H-indazol-5-yl)-6-phenyl-3-azabicyclo[3.1.0]hexan-3-yl)methanone]
48	Cc1cc2c(cnn2-c2ccc(F)cc2)cc1[C@@]12CN(Cc3ccccn3)C[C@@H]1[C@H]2c1ccccc1 (stereo in doubt) [Example 179, 1-(4-fluorophenyl)-6-methyl-5-(6-phenyl-3-(pyridin-2-ylmethyl)-3-azabicyclo[3.1.0]hexan-1-yl)-1H-indazole]
37	Cc1cc2c(cnn2-c2ccc(F)cc2)cc1[C@@]12CN(C(=O)c3ccccc3)C[C@@H]1[C@@]2(C)c1ccccc1 (stereo in doubt) [Example 183, (1-(1-(4-fluorophenyl)-6-methyl-1H-indazol-5-yl)-6-methyl-6-phenyl-3-azabicyclo[3.1.0]hexan-3-yl)(phenyl)methanone]
100	Cc1cc2c(cnn2-c2ccc(F)cc2)cc1[C@@]12CN(c3ncccn3)C[C@@H]1[C@H]2c1ccccc1 (stereo in doubt) [Example 185, 1-(4-fluorophenyl)-6-methyl-5-(6-phenyl-3-(pyrimidin-2-yl)-3-azabicyclo[3.1.0]hexan-1-yl)-1H-indazole]
44	CO[C@@]1(c2ccccc2)C[C@H]2CN(S(=O)(=O)c3cnn(C)c3)C[C@@]2(c2cc3cnn(-c4ccc(F)cc4)c3cc2C)C1 [Example 6, 1-(4-fluorophenyl)-5-((3aS,5S,6aR)-5-methoxy-2-((1-methyl-1H-pyrazol-4-yl)sulfonyl)-5-phenylhexahydrocyclopenta[c]pyrrol-3a(1H)-yl)-6-methyl-1H-indazole]
130	Cc1cc2c(cnn2-c2ccc(F)cc2)cc1C12CN(S(C)(=O)=O)CC1CC(O)(c1ccccc1)C2 (stereo not shown) [Example 9]
33	COC1(c2ccccc2)CC2CN(S(=O)(=O)c3cnn(C)c3)CC2(c2cc3cnn(-c4ccc(F)cc4)c3cc2C)C1 (stereo not shown) [Example 11, 1-(4-Fluorophenyl)-5-(5-methoxy-2-((1-methyl-1H-pyrazol-4-yl)sulfonyl)-5-phenylhexahydrocyclopenta[c]pyrrol-3a(1H)-yl)-6-methyl-1H-indazole]
170	CCOC1(c2ccccc2)CC2CN(S(=O)(=O)c3cnn(C)c3)CC2(c2cc3cnn(-c4ccc(F)cc4)c3cc2C)C1 (stereo not shown) [Example 12]
78	COC1(c2ccccc2)CC2CN(S(C)(=O)=O)CC2(c2cc3cnn(-c4ccc(F)cc4)c3cc2C)C1 (stereo not shown) [Example 13]
110	COC1(c2cccc(C)c2)CC2CN(S(=O)(=O)c3cnn(C)c3)CC2(c2cc3cnn(-c4ccc(F)cc4)c3cc2C)C1 (stereo not shown) [Example 14]
44	COC1(c2ccccc2)CC2CN(C(=O)OC(C)(C)C)CC2(c2cc3cnn(-c4ccc(F)cc4)c3cc2C)C1 (stereo not shown) [Example 18, tert-butyl 3a-(1-(4-fluorophenyl)-6-methyl-1H-indazol-5-yl)-5-methoxy-5-phenylhexahydrocyclopenta[c]pyrrole-2(1H)-carboxylate]
30	CO[C@@]1(c2ccccc2)C[C@H]2CN(S(=O)(=O)c3cnn(C(C)C)n3)C[C@@]2(c2cc3cnn(-c4ccc(F)cc4)c3cc2C)C1 [Example 23]
53	CCn1ncc(S(=O)(=O)N2CC3CC(OC)(c4ccccc4)CC3(c3cc4cnn(-c5ccc(F)cc5)c4cc3C)C2)n1 (stereo not shown) [Example 26]
